In ChEMBL document CHEMBL1201862, “PubChem BioAssay data set” (2004):
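Cultured in 96-well plates, cells were exposed to test compound for 48 hours across five concentrations. Abbreviation: GI50, concentration required for 50% inhibition of growth.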 Activity calls are given as the source filed them. Cut-off read from the data, not from the text of the source: active = GI50 up to about 1.1 µM and inactive = higher.

Columns and labels:
Experiment in all cases: NCI-60 cell line screen, 48 h
DMS-114 = tested on: DMS-114
SNB-78 = tested on: SNB-78
KM-20L2 = tested on: KM-20L2
HOP-18 = tested on: HOP-18
RXF 631 = tested on: RXF 631
XF498 = tested on: XF498
MDA-MB-435 = tested on: MDA-MB-435
T47D = tested on: T47D
MDA-N = tested on: MDA-N

Row | SMILES | GI50 (DMS-114) | GI50 (SNB-78) | GI50 (KM-20L2) | GI50 (HOP-18) | GI50 (RXF 631) | GI50 (XF498) | GI50 (MDA-MB-435) | GI50 (T47D) | GI50 (MDA-N)
1 | Cc1ccc([N+](=O)[O-])cc1NC(=O)/C(CC(=O)c1sc(C(N)=S)nc1C)=N\N | 30.3 µM (inactive) | > 100 µM (inactive) | > 100 µM (inactive) | 71.3 µM (inactive) | 31.5 µM (inactive) |  |  |  | 
2 | CCOC(=O)c1[nH]c2cc(OC)c(OC)cc2c1CN(C)C | > 100 µM (inactive) | > 100 µM (inactive) | > 100 µM (inactive) |  |  |  |  |  | 
3 | CCCCCC[C@@H]1CCC2C(CO)[C@@H](O)CC[C@@H]2C1 (stereo not given in full) | 19.6 µM (inactive) | 19.2 µM (inactive) | 18.4 µM (inactive) | 22.4 µM (inactive) |  | 24.7 µM (inactive) |  |  | 
4 | COc1cc2cccc(/N=C\c3ccccc3Cl)c2cc1OC | 35.2 µM (inactive) | > 100 µM (inactive) | > 100 µM (inactive) | > 100 µM (inactive) |  |  |  |  | 
5 | C/C(CC(=O)NC1=CC=C(NC(=O)C/C(C)=N\Nc2ccccc2)CC1)=N/Nc1ccccc1 | > 100 µM (inactive) | > 100 µM (inactive) | > 100 µM (inactive) | > 100 µM (inactive) | 41.4 µM (inactive) | > 100 µM (inactive) |  |  | 
6 | CC(=O)c1ccc(NC(=O)C(=O)Nn2c(S)nc3ccccc3c2=O)cc1 | > 100 µM (inactive) | > 100 µM (inactive) | > 100 µM (inactive) | > 100 µM (inactive) |  | > 100 µM (inactive) |  |  | 
7 | Cc1cccc(NC(=O)CSc2nnc(Cc3ccccc3)o2)c1 | > 100 µM (inactive) | > 100 µM (inactive) | > 100 µM (inactive) | > 100 µM (inactive) |  |  |  |  | 
8 | CCN(CC)c1cccc2c1C1(O)CCC3(CC21)OCCCCO3 (stereo not given) | 94.6 µM (inactive) | > 100 µM (inactive) | 68.4 µM (inactive) | > 100 µM (inactive) |  |  |  |  | 
9 | N#CC1(C2CC(=O)N(c3ccccc3)C2=O)CCCCC1=O (stereo not given) | > 100 µM (inactive) | > 100 µM (inactive) |  | > 100 µM (inactive) | > 100 µM (inactive) | 9.2 µM (inactive) |  |  | 
10 | O=C(/C=C/c1ccccc1)NC1C=Nc2ccc([N+](=O)[O-])cc2NC1=O (stereo not given) | 15.8 µM (inactive) | > 100 µM (inactive) | 23.3 µM (inactive) |  |  | > 100 µM (inactive) |  |  | 
11 | N#Cc1nc(C2OC(COC(=O)c3ccccc3)C(OC(=O)c3ccccc3)C2OC(=O)c2ccccc2)oc1N (stereo not given) | 28.9 µM (inactive) | 22 µM (inactive) | 39 µM (inactive) | 10.7 µM (inactive) |  |  |  |  | 
12 | C=C[C@]1(C)CCC2=C(CCC3C2(C)CCC[C@]3(C)CO)C1 (stereo not given in full) | 31.2 µM (inactive) | 79.4 µM (inactive) | 20.2 µM (inactive) | > 100 µM (inactive) | 51.1 µM (inactive) | 52.6 µM (inactive) |  |  | 
13 | C=CCNC(=S)N1CC(C)C(=O)Nc2ccccc21 (stereo not given) | > 100 µM (inactive) | > 100 µM (inactive) | > 100 µM (inactive) |  |  | > 100 µM (inactive) |  |  | 
14 | O=C(Cc1ccccc1)N/N=C(/c1nc2ccc([N+](=O)[O-])cc2nc1O)C(O)c1ccc(C(O)/C(=N/NC(=O)Cc2ccccc2)c2nc3ccc([N+](=O)[O-])cc3nc2O)cc1 (stereo not given) | 4.29 µM (inactive) |  | 12.4 µM (inactive) |  | 51.3 µM (inactive) | 29.8 µM (inactive) |  |  | 
15 | Cc1ccc(C2=Nc3ccccc3[S+]([O-])C(c3ccc4c(c3)OCO4)C2)cc1 (stereo not given) |  | 24.7 µM (inactive) | 17.4 µM (inactive) | > 100 µM (inactive) |  | 16.5 µM (inactive) |  |  | 
16 | N#CCc1ccc(C(C#N)/C(CCCC(=O)Nc2cccc([N+](=O)[O-])c2)=N\NC(=O)NN)cc1 (stereo not given) | > 100 µM (inactive) | > 100 µM (inactive) | > 100 µM (inactive) | > 100 µM (inactive) |  |  |  |  | 
17 | CCOC(=O)C(C(=O)Cc1ccccc1)c1ccccc1 (stereo not given) |  | > 100 µM (inactive) | > 100 µM (inactive) |  |  | > 100 µM (inactive) |  |  | 
18 | O=C1C=C(Nc2cccnc2)c2ccccc2C1=O | 2.02 µM (inactive) | 15.5 µM (inactive) | > 43.2 µM (inactive) | 10.3 µM (inactive) |  |  | 0.348 µM (active) | 21.4 µM (inactive) | 0.372 µM (active)

Row | SMILES | GI50 (DMS-114) | GI50 (SNB-78) | GI50 (KM-20L2) | GI50 (HOP-18) | GI50 (RXF 631) | GI50 (XF498) | GI50 (MDA-MB-435) | GI50 (T47D) | GI50 (MDA-N)
19 | CCOC(=O)N1N=NC2C3OC(C[C@@]3(C#N)OC(C)=O)[C@H]21 (stereo not given in full) |  | > 100 µM (inactive) | > 100 µM (inactive) | > 100 µM (inactive) | > 100 µM (inactive) | > 100 µM (inactive) |  |  | 
20 | O=C(/C=C\c1ccccc1O)c1ccc(O)cc1O | > 100 µM (inactive) | > 100 µM (inactive) | > 100 µM (inactive) | 55.7 µM (inactive) | > 100 µM (inactive) |  |  |  | 
21 | C=C=C(Sc1ccccc1)C(C)(C)O |  |  | > 100 µM (inactive) | > 100 µM (inactive) | > 100 µM (inactive) | > 100 µM (inactive) |  |  | 
22 | CCNC(=O)O/N=C1\CCC2[C@@H]3CC=C4C[C@@H](OC5CCCCO5)CC[C@]4(C)C3CC[C@]12C (stereo not given in full) | 1.26 µM (inactive) | 2.24 µM (inactive) | 2.64 µM (inactive) | 1.42 µM (inactive) | 2.75 µM (inactive) |  |  |  | 
23 | Cc1occ2c1C(=O)CC1C2[C@@H](O)CC2C(C)(C)CCC[C@]12C (stereo not given in full) | 82.8 µM (inactive) | > 100 µM (inactive) | > 100 µM (inactive) | > 100 µM (inactive) |  | > 100 µM (inactive) |  |  | 
24 | CC(=O)c1cccc(NC(=O)/C(=N\NC(C)(C)C)c2c(O)c3ccccc3oc2=O)c1 | > 100 µM (inactive) |  | > 100 µM (inactive) | > 100 µM (inactive) |  | > 100 µM (inactive) |  |  | 
25 | O=C(CCCCCCCCC(=O)OCC1OC(n2cnc3c(=O)[nH]cnc32)C(O)C1O)OCC1OC(n2cnc3c(=O)[nH]cnc32)C(O)C1O (stereo not given) | > 100 µM (inactive) | > 100 µM (inactive) | > 100 µM (inactive) | > 100 µM (inactive) |  | > 100 µM (inactive) |  |  | 
26 | COc1cc(C(=O)NO)ccc1O | > 100 µM (inactive) | > 100 µM (inactive) | > 100 µM (inactive) | > 100 µM (inactive) |  |  |  |  | 
27 | COC(=O)C(=O)C(CC(=O)Nc1c(C)cccc1C)C(=O)OC (stereo not given) | > 100 µM (inactive) | > 100 µM (inactive) | > 100 µM (inactive) | > 100 µM (inactive) | > 100 µM (inactive) | > 100 µM (inactive) |  |  | 
28 | Cc1nc2c(o1)C(=O)c1ccccc1/C2=N/C1CCCCC1N (stereo not given) |  |  |  |  |  |  | 0.162 µM (active) | 0.345 µM (active) | 0.185 µM (active)
29 | Nc1nncc2c1c(Br)cn2C1OC(CO)C(O)C1O (stereo not given) | 9.35 µM (inactive) | > 66.4 µM (inactive) | 44 µM (inactive) | > 67.6 µM (inactive) | 2.84 µM (inactive) | > 41.7 µM (inactive) |  |  | 
30 | O=C(CSc1nnc(Cc2ccccc2)o1)Nc1ccc(Cl)cc1Cl | > 100 µM (inactive) | > 100 µM (inactive) | > 100 µM (inactive) | > 100 µM (inactive) |  |  |  |  | 
31 | CN(C)c1n/c(=N/c2ccc3ccccc3c2)ss1 | 9.06 µM (inactive) | 42.6 µM (inactive) | 29.6 µM (inactive) | 25.3 µM (inactive) |  |  |  |  | 
32 | Cc1cc(-c2nc3cc(O)ccc3s2)ccc1N |  |  |  |  |  |  | 33.3 µM (inactive) | 22.9 µM (inactive) | 29.4 µM (inactive)
33 | Oc1cc(O)cc(-c2nc3cc(F)ccc3s2)c1 |  |  |  |  |  |  | 30.5 µM (inactive) | 17.5 µM (inactive) | 30.5 µM (inactive)
34 | Cc1nc2ccc(NC3OC(CO)C(O)C(O)C3O)cc2c(=O)n1-c1ccccc1 (stereo not given) |  |  |  |  |  |  | > 100 µM (inactive) | > 100 µM (inactive) | > 100 µM (inactive)
35 | COc1ccc(C(c2ccccc2C(=O)O)c2ccc(OC)c3ccccc23)c2ccccc12 | 7.06 µM (inactive) | 20.9 µM (inactive) | 9.25 µM (inactive) | 3.39 µM (inactive) |  | 20.9 µM (inactive) |  |  | 
36 | COC(=O)C(Cc1ccccc1)NC(=O)Cn1ccnc1[N+](=O)[O-] (stereo not given) | > 100 µM (inactive) |  | > 100 µM (inactive) | 67.8 µM (inactive) | > 100 µM (inactive) | > 100 µM (inactive) |  |  | 
